According to patent publication US6972319B1, “Pituitary adenylate cyclase activating peptide (PACAP)receptor 3 (R3) agonists and their pharmacological methods of use” (priority 1999, dated 2005):
No end group written: not given here.

T1: PACAP-R3 (Homo sapiens, UniProt P41587)
T1 sequence (P41587 24-438): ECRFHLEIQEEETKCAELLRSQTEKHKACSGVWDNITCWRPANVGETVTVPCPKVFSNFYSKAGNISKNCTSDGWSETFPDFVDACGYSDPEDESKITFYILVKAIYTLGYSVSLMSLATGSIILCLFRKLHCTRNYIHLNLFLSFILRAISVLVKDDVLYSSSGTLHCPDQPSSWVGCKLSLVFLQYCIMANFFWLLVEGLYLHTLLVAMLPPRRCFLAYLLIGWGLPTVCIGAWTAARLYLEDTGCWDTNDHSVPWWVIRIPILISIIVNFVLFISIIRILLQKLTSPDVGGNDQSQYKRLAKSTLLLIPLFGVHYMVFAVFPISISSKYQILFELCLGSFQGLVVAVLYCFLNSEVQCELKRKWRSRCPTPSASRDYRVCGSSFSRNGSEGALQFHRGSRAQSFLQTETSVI

T2: PACAP-R2 (Homo sapiens, UniProt P32241)
T2 construct: expressed in transfected cells; host or cells: CHO cells
T2 sequence (P32241 31-457): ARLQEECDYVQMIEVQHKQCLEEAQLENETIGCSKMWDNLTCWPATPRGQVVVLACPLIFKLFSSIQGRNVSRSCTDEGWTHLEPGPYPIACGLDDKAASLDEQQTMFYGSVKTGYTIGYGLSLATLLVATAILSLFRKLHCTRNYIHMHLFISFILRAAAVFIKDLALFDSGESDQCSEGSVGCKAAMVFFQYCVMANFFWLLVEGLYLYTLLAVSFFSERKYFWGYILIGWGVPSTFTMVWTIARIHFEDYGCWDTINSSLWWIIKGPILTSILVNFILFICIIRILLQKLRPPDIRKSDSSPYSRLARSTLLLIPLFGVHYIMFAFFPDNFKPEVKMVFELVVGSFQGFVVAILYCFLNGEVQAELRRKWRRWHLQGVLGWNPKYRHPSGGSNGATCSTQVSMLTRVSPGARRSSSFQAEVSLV

T3: PACAP-R3 (human, UniProt P41587 24-438)
T3 sequence (looked up): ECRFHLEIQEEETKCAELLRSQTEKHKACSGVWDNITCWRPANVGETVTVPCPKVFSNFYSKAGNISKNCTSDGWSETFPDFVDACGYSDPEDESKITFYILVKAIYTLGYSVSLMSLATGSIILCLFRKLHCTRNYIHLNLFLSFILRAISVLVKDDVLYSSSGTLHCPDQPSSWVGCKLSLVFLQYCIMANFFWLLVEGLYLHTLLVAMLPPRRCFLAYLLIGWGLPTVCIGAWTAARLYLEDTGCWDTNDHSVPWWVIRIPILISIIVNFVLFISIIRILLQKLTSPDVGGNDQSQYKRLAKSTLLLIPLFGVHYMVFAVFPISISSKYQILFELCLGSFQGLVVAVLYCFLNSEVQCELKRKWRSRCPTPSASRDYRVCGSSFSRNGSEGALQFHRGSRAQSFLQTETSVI


Legend:
[1] = Intraperitoneal glucose tolerance test (IPGTT), plasma glucose in rats; format: in vivo, Wistar rats; conditions: for elevation of plasma glucose 30 minutes after IPGTT: 1 nmole/kg s.c., rats, FIG. 7
Procedure: Wistar rats are fasted overnight and then anesthetized with pentobarbital. The rats were eye-bled (zero time) and the peptide (in 1% human albumin) was injected into the tail vein. Five minutes later, 1 g/kg of glucose (in saline) was injected intraperitoneally, and the rats were eye-bled after 15, 30 and 60 minutes. Plasma glucose levels were determined using the Technicon Axon autoanalyzer, Bayer Diagnosics division of Bayer Corporation, Tarrytown N.Y., operated using Method No. SM4-2143F90“Glucose”.
Wistar rats were fasted overnight and then anesthetized with Pentobarbital. The rats were eye-bled (zero time) and the peptide (in 1% human albumin) was injected subcutaneously. Five minutes later, 1 g/kg of glucose (in saline) was injected intraperitoneally, and the rats were eye-bled after 30 minutes.
Plasma glucose: Data are expressed as % of vehicle of plasma glucose area under the curve after IPGTT (1 g/kg glucose) after treatment with 1 nmol/kg dose of the peptide. […] The present inventors have shown for the first time that this is because the effects of R2 and R3 on glucose tend to cancel each other out. […] Therefore, R3-selectivity appears to be a desirable attribute for medicaments which are to be employed in achieving blood glucose reduction, for treatment of type 2 diabetes.

PACAP-R3 [2] = target: T1, PACAP-R3; test: Cyclic AMP SPA on CHO cells expressing PACAP R3; format: cell-based; design: expressed in transfected cells; host or cells: CHO cells (Geneticin selection); conditions: for EC50: cAMP SPA, CHO cells transfected with PACAP-R3, concentration at which 50% of maximum PACAP27 activity is achieved, NA = no detectable activities, read-out: R3 EC50; for R3 Selectivity: ratio of EC50 at R2 versus EC50 at R3
Summary of the method: (§1)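 CHO cells expressing human PACAP-R2 or PACAP-R3 were exposed to peptide for 15 min at 37 °C with 100 μM IBMX and protease inhibitors. cAMP was measured by SPA. EC50 is the concentration giving 50% of maximal PACAP27 activity, and R3 selectivity is EC50(R2)/EC50(R3).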

PACAP-R2 = target: T2, PACAP-R2; test: Cyclic AMP SPA on CHO cells transfected with PACAP-R2; format: cell-based; conditions: cAMP SPA, concentration at which 50% of maximum PACAP27 activity is achieved, NA = no detectable activities, read-out: R2 EC50
Summary of the method: as §1

[3] = Peptide-induced elevation of plasma insulin after IVGTT in rats; format: in vivo; conditions: one minute after IVGTT (0.4 g/kg glucose), Wistar rats
Procedure: Wistar rats are fasted overnight (17 hrs) and then anesthetized with pentobarbital (0.1 ml/100 g BW). Glucose (0.4 g/kg dissolved in 1% human albumin-saline)+/−peptide (dissolved in 1% human albumin-saline) is injected intravenously into the tail vein. The rats are eye-bled 1 minute after the injection and 50-100 ul of the plasma are assayed for insulin level with the Linco RIA kit (Linco Research, Inc., St. Charles, Mo.).
In accordance with the protocol of example 2 above, overnight fasted Wistar rats were anesthetized with pentobarital; i.v. injected with glucose±peptide and eye bled after 1 minute. N=12 rats/group. […] The peptide or vehicle was given i.v. followed by a glucose load given i.p. in accordance with example 3. The plasma glucose was followed over the time period indicated.
Plasma insulin: Data are expressed as % of plasma insulin one minute after IVGTT (0.4 g/kg glucose) with either saline, 0.1 nmol/kg P51, P55, P60, P66 or 1 nmole/kg of the other peptides in Wistar rats. Blood was drawn from the eye and insulin was measured with the rat insulin RIA kit (Linco Research, Inc., St. Charles, Mo.).

PACAP-R3 [4] = target: T3, PACAP-R3; test: cell-based or functional assay

Molecule | EC50 (PACAP-R3 [2]) [nM] | R3 Selectivity (PACAP-R3 [2]) | EC50 (PACAP-R2) [nM] | Plasma Insulin (% of Basal) ([3]; 1 nmole/kg peptide i.v.) [%] | R3 EC50, nM (cAMP SPA) (PACAP-R3 [4]) [nM] | R3 Selectivity (PACAP-R3 [4]) [ratio] | also measured
HAEGTFTSDV SSYLEGQAAK EFIAWLVKGR-NH2 (HAEGTFTSDVSSYLEGQAAKEFIAWLVKGR-NH2) [GLP-1, incretin hormone released from the intestinal L-cell, a known insulin secretagogue, reference compound] | – | – | – | – | – | – | elevation of plasma glucose 30 minutes after IPGTT [1]: enhance glucose disposal
HSDAVFTDNYTRLRKQLAAKKYLNDIKKKRY [Peptide R3P36] | 0.4 | >200 | > 90 | 255 | – | – | Plasma Glucose (% of Basal) s.c. ([1]; plasma glucose after IPGTT (1 g/kg glucose), 1 nmol/kg peptide s.c., % of vehicle): 78%; Plasma Glucose (% of Basal) i.v. ([1]; plasma glucose area under the curve after IPGTT (1 g/kg glucose), 1 nmol/kg peptide i.v., % of vehicle): 73%
HSDAVFTDNYTRLRKQVAAKKYLQSIKK [Peptide R3P60] | 1 | 120 | 120 | – | – | – | Plasma Insulin (% of Basal) ([3]; 0.1 nmol/kg peptide i.v.): 283%
CC[C@H](C)[C@H](NC(=O)[C@H](CO)NC(=O)[C@H](CCC(N)=O)NC(=O)[C@H](CC(C)C)NC(=O)[C@H](Cc1ccc(O)cc1)NC(=O)[C@H](CCCCN)NC(=O)[C@H](CCCCN)NC(=O)[C@@H](NC(=O)[C@H](C)NC(=O)[C@@H](NC(=O)[C@H](CCC(N)=O)NC(=O)[C@H](CCCCN)NC(=O)[C@H](CCCNC(=N)N)NC(=O)[C@H](CC(C)C)NC(=O)[C@H](CCCNC(=N)N)NC(=O)[C@@H](NC(=O)[C@H](Cc1ccc(O)cc1)NC(=O)[C@H](CC(N)=O)NC(=O)[C@H](CC(=O)O)NC(=O)[C@@H](NC(=O)[C@H](Cc1ccccc1)NC(=O)[C@@H](NC(=O)[C@H](C)NC(=O)[C@H](CC(=O)O)NC(=O)[C@H](CO)NC(=O)[C@@H](N)Cc1c[nH]cn1)C(C)C)[C@@H](C)O)[C@@H](C)O)C(C)C)C(C)C)C(=O)N[C@@H](CCCCN)C(=O)N[C@@H](CCCCN)C(=O)N[C@@H](CCCCN)C(=O)N[C@@H](CCCNC(=N)N)C(=O)O [Peptide R3P80] | 0.44 | – | – | 360 | – | – | –
HSDAVFTDNYTRLRKQLAAKKYLNDIKK-NH2 [Peptide R3P13] | 5 | 33 | 163 | – | – | – | elevation of plasma glucose 30 minutes after IPGTT [1]: significantly reduced
HSDAVFTDNYTRLRKQVAAKKYLQSIKKKR [Peptide R3P77] | 0.4 | 500 | 200 | 388 | – | – | –
HSDAVFTDNYTRLRKQMAAKKYLNSIKK [Peptide R3P51] | 0.26 | 90 | 23 | – | – | – | Plasma Insulin (% of Basal) ([3]; 0.1 nmol/kg peptide i.v.): 259%
HSDAVFTDNYTRLRKQVAVKKYLQSIKKK [Peptide R3P81] | 0.5 | 100 | 50 | 302 | – | – | –
H-HSDAVFTDNYTRLRKQMAAKKYLNSIKNKRY [Peptide R3P55] | 0.17 | 280 | 50 | – | – | – | Plasma Insulin (% of Basal) ([3]; 0.1 nmol/kg peptide i.v.): 208%
HSDAVFTDNYTRLRKQMARKKYLNSIQNRI [rR3P187] | – | – | – | – | 1.6 | > 80 | –
HSDAVFTDNYTRLRKQMAKKKYLNSIQNRI [rR3P186] | – | – | – | – | 1.6 | 44 | –
HSDAVFTDNYTRLRKQMAKKKYLNSIRNRI [rR3P191] | – | – | – | – | 2.7 | > 80 | –
HSDAVFTDNYTRLRKQMARKKYLNSIKNRI [rR3P177] | – | – | – | – | 1.6 | 70 | –
